Experimental findings from patent US20080132505A1 (Glaxo Group Limited, priority 2004, published 2008) are described below.

The assay has as its target human cannabinoid CB2 receptor (Homo sapiens, UniProt P34972). As to the kind of experiment: Cannabinoid CB2 receptor agonist activity (yeast reporter assay, FDGlu fluorescence). In kind it is cell-based. To be noted: for Emax: read-out: efficacy value (Emax relative to HU210) at the cloned human cannabinoid CB2 receptor. Summed up:
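Agonist-driven growth was read as fluorescein fluorescence (ex 485, em 535 nm) from FDGlu cleavage after 24 h at 30 °C, using yeast strain MMY23 carrying human CB2 and chimeric Gpa1/Gαi3. Medium had 10 mM 3-aminotriazole, pH 7.0; four-parameter fits gave EC50, with Emax and EMR versus HU210.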
In general terms: A reporter such as luciferase makes a cellular process visible.

Where [1] appears, read: EC50 value at the cloned human cannabinoid CB2 receptor.

Read-outs that look alike come from different tables or passages of the source. Some results are limits rather than exact numbers.

Chain of human cannabinoid CB2 receptor (P34972 whole entry): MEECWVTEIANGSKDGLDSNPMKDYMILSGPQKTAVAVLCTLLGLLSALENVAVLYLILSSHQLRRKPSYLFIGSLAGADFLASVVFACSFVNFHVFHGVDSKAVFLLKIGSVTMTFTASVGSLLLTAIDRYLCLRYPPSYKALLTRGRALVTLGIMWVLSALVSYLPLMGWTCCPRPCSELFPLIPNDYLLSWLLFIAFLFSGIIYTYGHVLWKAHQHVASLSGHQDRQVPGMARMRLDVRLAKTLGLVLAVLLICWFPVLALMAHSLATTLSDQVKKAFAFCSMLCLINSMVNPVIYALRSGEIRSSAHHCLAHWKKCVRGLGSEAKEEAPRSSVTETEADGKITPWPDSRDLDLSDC

By EC50 is commonly meant the concentration needed to bring the measured effect to its halfway point. In general, Emax refers to the size of the effect at its maximum, as opposed to the concentration needed. Consider `O=C(NC1CC1)c1cnc(Nc2cccc(Cl)c2)nc1C(F)(F)F` [Example 209, 2-(3-Chlorophenylamino)-4-trifluoromethyl-pyrimidine-5-carboxylic acid cyclopropylamide], for which the Emax is above 50%. Under setting [1], this compound showed a 50% effective concentration (EC50) of 20 to 300 nM.
In the same order, the values of `CN(CC1CCOCC1)C(=O)c1cnc(Nc2cccc(Cl)c2)nc1C(F)(F)F` [Example 211, 2-(3-Chlorophenylamino)-4-trifluoromethyl-pyrimidine-5-carboxylic acid methyl-(tetrahydro-pyran-4-ylmethyl)-amide] are above 50% and 20 to 300 nM.
Take `O=C(NCC1CCOCC1)c1cnc(Nc2cccc(Cl)c2F)nc1C(F)(F)F` [Example 212, 2-(2-Fluoro-3-chloro-phenylamino)-4-trifluoromethyl-pyrimidine-5-carboxylic acid (tetrahydro-pyran-4-ylmethyl)-amide]: under “read-out: EC50 value at the cloned human cannabinoid CB2 receptor”, the 50% effective concentration (EC50) was in the range of 20 to 300 nM.
In the case of `O=C(NCC1CCOCC1)c1cnc(Nc2cc(Cl)ccc2F)nc1C(F)(F)F` [Example 213, 2-(2-Fluoro-5-chloro-phenylamino)-4-trifluoromethyl-pyrimidine-5-carboxylic acid (tetrahydro-pyran-4-ylmethyl)-amide], the Emax was above 50%. Also, under setting [1], the 50% effective concentration (EC50) lay in the range of 20 to 300 nM.
The like results for `O=C(NCC1CCOCC1)c1cnc(Nc2cc(F)cc(F)c2)nc1C(F)(F)F` [Example 214, 2-(3,5-Difluorophenylamino)-4-trifluoromethyl-pyrimidine-5-carboxylic acid (tetrahydro-pyran-4-ylmethyl)-amide] were, in that order, above 50% and 20 to 300 nM.
In the same order, the values of `O=C(NCC1CCOCC1)c1cnc(Nc2ccc(F)c(Cl)c2)nc1C(F)(F)F` [Example 215, 2-(4-Fluoro-3-chloro-phenylamino)-4-trifluoromethyl-pyrimidine-5-carboxylic acid (tetrahydro-pyran-4-ylmethyl)-amide] are above 50% and 20 to 300 nM.
The like results for `O=C(NCC1CCOCC1)c1cnc(Nc2ccc(OC(F)(F)F)c(Cl)c2)nc1C(F)(F)F` [Example 216, 2-(4-Trifluoromethoxy-3-chloro-phenylamino)-4-trifluoromethyl-pyrimidine-5-carboxylic acid (tetrahydro-pyran-4-ylmethyl)-amide] were, in that order, above 50% and 20 to 300 nM.
Regarding `O=C(NCC1CCOCC1)c1cnc(Nc2ccc(C(F)(F)F)c(F)c2)nc1C(F)(F)F` [Example 218, 2-(4-Trifluoromethyl-3-fluoro-phenylamino)-4-trifluoromethyl-pyrimidine-5-carboxylic acid (tetrahydro-pyran-4-ylmethyl)-amide], the maximal response (Emax) was above 50%. Besides, the EC50 under setting [1] is 20 to 300 nM.
On to `N#Cc1ccc(Nc2ncc(C(=O)NCC3CCCC3)c(C(F)(F)F)n2)cc1Cl` [Example 219, 2-(4-Cyano-3-chloro-phenylamino)-4-trifluoromethyl-pyrimidine-5-carboxylic acid cyclopentylmethyl-amide], for which the Emax was above 50%. The EC50 under setting [1] fell in the range of 20 to 300 nM.
Regarding `O=C(NC1CCS(=O)(=O)CC1)c1cnc(Nc2ccc(Cl)cc2Cl)nc1C(F)(F)F` [Example 220, 2-(2,4-Dichloro-phenylamino)-4-trifluoromethyl-pyrimidine-5-carboxylic acid (1,1-dioxo-hexahydro-1l^6-thiopyran-4-yl)-amide], the Emax was above 50%. Moreover, the concentration giving a half-maximal response (EC50) under setting [1] was 20 to 300 nM.
The like results for `O=C(NCC1CCCCC1)c1cnc(Nc2ccc(F)cc2F)nc1C(F)(F)F` [Example 221, 2-(2,4-Difluoro-phenylamino)-4-trifluoromethyl-pyrimidine-5-carboxylic acid cyclohexylmethyl-amide] were, in that order, above 50% and 20 to 300 nM.
The like results for `O=C(NCC1CCCCC1)c1cnc(Nc2ccc(F)cc2Cl)nc1C(F)(F)F` [Example 222, 2-(2-Chloro-4-fluoro-phenylamino)-4-trifluoromethyl-pyrimidine-5-carboxylic acid cyclohexylmethyl-amide] were, in that order, above 50% and 20 to 300 nM.
For the compound `O=C(NCC1CCC1)c1cnc(Nc2ccc(F)cc2F)nc1C(F)(F)F` [Example 223, 2-(2,4-Difluoro-phenylamino)-4-trifluoromethyl-pyrimidine-5-carboxylic acid cyclobutylmethyl-amide], the Emax was above 50%. Besides, the half-maximal effective concentration (EC50) under setting [1] was 20 to 300 nM.
For the compound `O=C(NCC1CCC1)c1cnc(Nc2ccc(F)cc2Cl)nc1C(F)(F)F` [Example 224, 2-(2-Chloro-4-fluoro-phenylamino)-4-trifluoromethyl-pyrimidine-5-carboxylic acid cyclobutylmethyl-amide], the maximum response (Emax) was above 50%. For the same compound, the EC50 under setting [1] lay within 20 to 300 nM.
In the same order, the values of `O=C(NCC1CCCCC1)c1cnc(Nc2ccc(Br)cc2Cl)nc1C(F)(F)F` [Example 225, 2-(2-Chloro-4-bromo-phenylamino)-4-trifluoromethyl-pyrimidine-5-carboxylic acid cyclohexylmethyl-amide] are above 50% and 20 to 300 nM.
In the same order, the values of `O=C(NCC1CCCCC1)c1cnc(Nc2ccc(Cl)cc2F)nc1C(F)(F)F` [Example 226, 2-(2-Fluoro-4-chloro-phenylamino)-4-trifluoromethyl-pyrimidine-5-carboxylic acid cyclohexylmethyl-amide] are above 50% and 20 to 300 nM.
Take `O=C(NCC1CCC1)c1cnc(Nc2ccc(Br)cc2Cl)nc1C(F)(F)F` [Example 227, 2-(2-Chloro-4-bromo-phenylamino)-4-trifluoromethyl-pyrimidine-5-carboxylic acid cyclobutylmethyl-amide]: the maximal response (Emax) is above 50%. The same compound displayed an EC50 under setting [1] of 20 to 300 nM.
In the same order, the values of `O=C(NCC1CCC1)c1cnc(Nc2ccc(Br)cc2F)nc1C(F)(F)F` [Example 229, 2-(2-Fluoro-4-bromo-phenylamino)-4-trifluoromethyl-pyrimidine-5-carboxylic acid cyclobutylmethyl-amide] are above 50% and 20 to 300 nM.
In the case of `O=C(NCC1CCC1)c1cnc(Nc2ccc(Cl)cc2Br)nc1C(F)(F)F` [Example 230, 2-(2-Bromo-4-chloro-phenylamino)-4-trifluoromethyl-pyrimidine-5-carboxylic acid cyclobutylmethyl-amide], the Emax was above 50%. Also, the 50% effective concentration (EC50) under setting [1] fell in the range of 20 to 300 nM.
The like results for `O=C(NCC1CCCCC1)c1cnc(Nc2ccc(Br)cc2F)nc1C(F)(F)F` [Example 231, 2-(2-Fluoro-4-bromo-phenylamino)-4-trifluoromethyl-pyrimidine-5-carboxylic acid cyclohexylmethyl-amide] were, in that order, above 50% and 20 to 300 nM.
In the same order, the values of `O=C(NCC1CCOCC1)c1cnc(Nc2ccc(Br)cc2F)nc1C(F)(F)F` [Example 232, 2-(2-Fluoro-4-bromo-phenylamino)-4-trifluoromethyl-pyrimidine-5-carboxylic acid (tetrahydro-pyran-4-ylmethyl)-amide] are above 50% and 20 to 300 nM.
The like results for `O=C(NCC1CCOCC1)c1cnc(Nc2ccc(F)cc2Cl)nc1C(F)(F)F` [Example 233, 2-(2-Chloro-4-fluoro-phenylamino)-4-trifluoromethyl-pyrimidine-5-carboxylic acid (tetrahydro-pyran-4-ylmethyl)-amide] were, in that order, above 50% and 20 to 300 nM.
On to `O=C(NCC1CCOCC1)c1cnc(Nc2ccc(Br)cc2Cl)nc1C(F)(F)F` [Example 234, 2-(2-Chloro-4-bromo-phenylamino)-4-trifluoromethyl-pyrimidine-5-carboxylic acid (tetrahydro-pyran-4-ylmethyl)-amide], for which the maximum response (Emax) is above 50%. For the same compound, the EC50 under setting [1] lay in the range of 20 to 300 nM.
In the same order, the values of `N#Cc1ccc(Nc2ncc(C(=O)NCC3CCOCC3)c(C(F)(F)F)n2)c(Cl)c1` [Example 235, 2-(2-Chloro-4-cyano-phenylamino)-4-trifluoromethyl-pyrimidine-5-carboxylic acid (tetrahydro-pyran-4-ylmethyl)-amide] are above 50% and 20 to 300 nM.
Turning to `O=C(NCC1CCOCC1)c1cnc(Nc2ccc(C(F)(F)F)cc2Cl)nc1C(F)(F)F` [Example 236, 2-(2-Chloro-4-trifluoromethyl-phenylamino)-4-trifluoromethyl-pyrimidine-5-carboxylic acid (tetrahydro-pyran-4-ylmethyl)-amide], the maximal effect (Emax) was above 50%. Under setting [1], this compound yielded an EC50 of 20 to 300 nM.
In the same order, the values of `N#Cc1ccc(Nc2ncc(C(=O)NCC3CCCCC3)c(C(F)(F)F)n2)c(Cl)c1` [Example 237, 2-(2-Chloro-4-cyano-phenylamino)-4-trifluoromethyl-pyrimidine-5-carboxylic acid cyclohexylmethyl-amide] are above 50% and 20 to 300 nM.
With `O=C(NCC1CCCCC1)c1cnc(Nc2ccc(Cl)cc2Br)nc1C(F)(F)F` [Example 238, 2-(2-Bromo-4-chloro-phenylamino)-4-trifluoromethyl-pyrimidine-5-carboxylic acid cyclohexylmethyl-amide], the maximal effect (Emax) was above 50%. Besides, the EC50 under setting [1] lay within 20 to 300 nM.
`O=C(NCC1CCOCC1)c1cnc(Nc2ccc(Cl)cc2Br)nc1C(F)(F)F` [Example 239, 2-(2-Bromo-4-chloro-phenylamino)-4-trifluoromethyl-pyrimidine-5-carboxylic acid (tetrahydro-pyran-4-ylmethyl)-amide]: the maximum response (Emax) was above 50%. Besides, the half-maximal effective concentration (EC50) under setting [1] fell in the range of 20 to 300 nM.
Take `O=C(NCC1CC1)c1cnc(Nc2cccc(Br)c2)nc1C(F)(F)F` [Example 240, 2-(3-Bromophenylamino)-4-trifluoromethyl-pyrimidine-5-carboxylic acid cyclopropylmethyl-amide]: the Emax is above 50%. Further, under setting [1], the EC50 lay in the range of 20 to 300 nM.
